Source: patent publication US20210393735A1, “PHARMACEUTICAL COMPOSITION COMPRISING TEICOPLANIN” (GALENUS G.H. AG, priority 2018, published 2021)

Tests used:
[1] = in vivo; cited from earlier work
[2] = system: Gram-positive bacteria such as staphylococci (including methicillin-resistant strains), streptococci, enterococci and many anaerobic Gram-positive bacteria; settings: Campoli-Richards et al. 1990 [2]; cited from earlier work
[3] = system: clinical isolates of Clostridium difficile; settings: isolates from patients with hospital or community acquired CDI; Jamal, Rotimi 2016 [3]; cited from earlier work
[4] = Phase-1 open cross-over cohort study in healthy subjects: conventional vs novel teicoplanin dosage regimen (pharmacokinetics, tolerability); type: in vivo, human (healthy subjects)
Method: Teicoplanin: Conventional Dosage Regimen as Compared to the Novel Dosage Regimen
Phase-1 Study in Healthy Subjects
The study is performed as an open, cross over cohort-study after having received ethical approval and written consent by the participating 6 healthy subjects (3 males and 3 females). The principle study design of Outman et al (1990 [4]) is used with the following modification: 6 loading doses are followed by the maintenance dosing phase up to a total of 6 days.
In the first cross over comparative study, the following two dosage regimens are used:
Regimen A1: 6 loading dosages of 400 mg twice daily (bid) followed by 3 dosages of 400 mg once daily (total 6 days): total dosage 3600 mg
Regimen B1: first loading dose 800 mg followed by 4 dosages 400 mg bid, followed by 6 dosages 200 mg bid (total 6 days): total dosage 3600 mg.
In the second cross over comparative study, the following two dosage regimens are used:
Regimen A2: 6 loading dosages of 800 mg bid followed by 3 dosages of 800 mg once daily (total 6 days): total dosage 7200 mg
Regimen B2: 6 loading dosages of 800 mg bid followed by 6 dosages 400 mg bid (total 6 days): total dosage 7200 mg.

[5] = overall, no significant difference between regimens A and B in both studies

For teicoplanin, the “terminal half-life, mean (±SD)” value [1] is listed as 157 (±93) hours (h), the “terminal half-life, median (range)” value [1] is listed as 168 (111-278) h and the susceptibility in vitro [2] is listed as “susceptible”. For the same substance, the “activity against clinical isolates” value [3] was “active”, the “phlebitis or renal, hepatic, or ototoxicity” value ([4]; 1st and 2nd study) was “no evidence” and the tolerability ([4]; 1st and 2nd study, both dosing regimens) was “generally well tolerated”. For the same substance, the trough levels ([4]; 1st study, 1st day, regimen A1 (6 x 400 mg bid, then 3 x 400 mg once daily)) was 8 to 15 mg/L, the trough levels ([4]; 1st study, 1st day, regimen B1 (800 mg, then 4 x 400 mg bid, then 6 x 200 mg bid)) was 18 to 25 mg/L and the trough levels ([4]; 1st study, day 4 to 6, regimen A1) was 10 to 18 mg/L. For the same substance, the trough levels ([4]; 1st study, day 4 to 6, regimen B1) was 20 to 30 mg/L, the trough levels ([4]; 2nd study, 1st day, regimen A2 (6 x 800 mg bid, then 3 x 800 mg once daily)) was 14 to 24 mg/L and the trough levels ([4]; 2nd study, 1st day, regimen B2 (6 x 800 mg bid, then 6 x 400 mg bid)) was 25 to 34 mg/L. For the same substance, the trough levels ([4]; 2nd study, day 4 to 6, regimen A2) was 18 to 26 mg/L, the trough levels ([4]; 2nd study, day 4 to 6, regimen B2) was 30 to 38 mg/L and the “higher trough levels with novel vs conventional dosage regimen” value ([4]; at the 1st day (first study only) and from day 4 on) was “about 50%”. For the same substance, the “lightheadedness during the infusion” value ([4]; during infusion of some, but not all, doses, 6 healthy subjects) was “Two subjects experience transient lightheadedness”, the renal clearance [4, 5] was 0.19 ± 0.015 mL/min/kg and the t1/2 [4, 5] was 157+93 h. It also gave a total clearance [4, 5] of 0.21 ± 0.018 mL/min/kg.
